Test results taken from US9497966B2, “Pesticidal compositions and related methods” (DOW AGROSCIENCES LLC, priority 2013, dated 2016).

How the values were obtained:
[1] = tested on: Green Peach Aphid (Myzus persicae) (GPA) (MYZUPE); experiment: Bioassay for Green Peach Aphid, foliar spray on infested cabbage seedlings; format: in vivo; conditions: 72 h, 200 ppm foliar spray on cabbage, graded after three days, Abbott-corrected % control, read-out: % Control (or Mortality) rating, GPA
Procedure: Example A: Bioassays for Green Peach Aphid (Myzus persicae) (GPA) (MYZUPE)
Cabbage seedlings grown in 3-inch pots, with 2-3 small (3-5 cm) true leaves, were used as test substrate. The seedlings were infested with 20-50 GPA (wingless adult and nymph stages) one day prior to chemical application. Four pots with individual seedlings were used for each treatment. Test compounds (2 mg) were dissolved in 2 mL of acetonemethanol (1:1) solvent, forming stock solutions of 1000 ppm test compound. The stock solutions were diluted 5× with 0.025% Tween 20 in H2O to obtain the solution at 200 ppm test compound. A hand-held aspirator-type sprayer was used for spraying a solution to both sides of […] leaves until runoff. Reference plants (solvent check) were sprayed with the diluent only containing 20% by volume of acetonemethanol (1:1) solvent. Treated plants were held in a holding room for three days at approximately 25° C. and ambient relative humidity (RH) prior to grading. Evaluation was conducted by counting the number of live aphids per plant under a microscope. Percent control was measured by using Abbott's correction formula (W. S. Abbott, “A Method of Computing the Effectiveness of an Insecticide,” J. Econ. Entomol. 18 (1925), pp. 265-267) as follows. Corrected % Control=100*(X−Y)/X • where • X=No. of live aphids on solvent check plants and • Y=No. of live aphids on treated plants The results are indicated in the table entitled “TABLE 2. Biological Data for Green Peach Aphid (MYZUPE) and Sweetpotato Whitefly-crawler (WF) (BEMITA)” (See Table Section).

[2] = tested on: Sweetpotato Whitefly-Crawler (Bemisia tabaci) (WF) (BEMITA); experiment: Insecticidal test for Sweetpotato Whitefly-Crawler in foliar spray assay on cotton plants; format: in vivo; conditions: 216 h, 200 ppm foliar spray on cotton, graded after 9 days, Abbott-corrected % control, read-out: % Control (or Mortality) rating, WF
Procedure: Example B: Insecticidal Test for Sweetpotato Whitefly-Crawler (Bemisia tabaci) (WF) (BEMITA) in Foliar Spray Assay
Cotton plants (Gossypium hirsutum) grown in 3-inch pots, with 1 small (4-5 cm) true leaves, were used as test substrate. The plants were infested with 200-400 whitefly eggs 4-5 days prior to chemical application. Four pots with individual plants were used for each treatment. Test compounds (2 mg) were dissolved in 1 mL of acetone solvent, forming stock solutions of 2000 ppm test compound. The stock solutions were diluted 10× with 0.025% Tween 20 in H2O (diluents) to obtain the solution at 200 ppm test compound. A hand-held aspirator-type sprayer was used for spraying a solution to both sides of cotton leaves until runoff. Reference plants (solvent check) were sprayed with the diluent only containing 10% by volume of acetone solvent. Treated plants were held in a holding room for 9 days at approximately 25° C. and ambient relative humidity (RH) prior to grading. Evaluation was conducted by counting the number of live 3-4 nymph stage per plant under a microscope. Percent control was measured by using Abbott's correction formula (W. S. Abbott, “A Method of Computing the Effectiveness of an Insecticide,” J. Econ. Entomol. 18 (1925), pp. 265-267) as follows. Corrected % Control=100*(X−Y)/X • where • X=No. of live nymphs on solvent check plants and • Y=No. of live nymphs on treated plants.
Biological Data for Green Peach Aphid (MYZUPE) and Sweetpotato Whitefly-crawler (WF) (BEMITA)” (See Table Section).

Row | SMILES | mortality at 200 ppm [1] | mortality at 200 ppm [2]
1 | C#CCN(C(=O)C(CSC(c1ccccc1)(c1ccccc1)c1ccccc1)=NOCC)c1cn(-c2cccnc2)nc1Cl [Compound F1, N-(3-chloro-1-(pyridin-3-yl)-1H-pyrazol-4-yl)-2-(ethoxyimino)-N-(prop-2-yn-1-yl)-3-(tritylthio)propanamide] | < 0% | 0 to 80%
2 | C#CCN(C(=O)C(CSCC1CC1(F)F)=NOC)c1cn(-c2cccnc2)nc1Cl (centres unmarked) [Compound F2, N-(3-Chloro-1-(pyridin-3-yl)-1H-pyrazol-4-yl)-3-(((2,2-difluorocyclopropyl)methyl)thio)-2-(methoxyimino)-N-(prop-2-yn-1-yl)propanamide] | 80 to 100% | 80 to 100%
3 | CCN(C(=O)C(CS(=O)(=O)CC1CC1(F)F)=NOC)c1cn(-c2cccnc2)nc1Cl (centres unmarked) [Compound F3] | 80 to 100% | 80 to 100%
4 | C#CCN(C(=O)C(CSC(c1ccccc1)(c1ccccc1)c1ccccc1)=NOC)c1cn(-c2cccnc2)nc1Cl [Compound F4, N-(3-chloro-1-(pyridin-3-yl)-1H-pyrazol-4-yl)-2-(methoxyimino)-N-(prop-2-yn-1-yl)-3-(tritylthio)propanamide] | < 0% | 0 to 80%
5 | CCN(C(=O)C(CSCC1CC1(F)F)=NOC)c1cn(-c2cccnc2)nc1Cl (centres unmarked) [Compound F5] | 80 to 100% | 80 to 100%
6 | C#CCN(C(=O)C(CSCC(F)(F)F)=NOC)c1cn(-c2cccnc2)nc1Cl [Compound F6, N-(3-Chloro-1-(pyridin-3-yl)-1H-pyrazol-4-yl)-2-(methoxyimino)-N-(prop-2-yn-1-yl)-3-((2,2,2-trifluoroethyl)thio)propanamide] | 80 to 100% | 80 to 100%
7 | C#CCN(C(=O)C(CS)=NOCC)c1cn(-c2cccnc2)nc1Cl [Compound F7, N-(3-Chloro-1-(pyridin-3-yl)-1H-pyrazol-4-yl)-2-(ethoxyimino)-3-mercapto-N-(prop-2-yn-1-yl)propanamide] | 80 to 100% | < 0%
8 | CCN(C(=O)C(CS(=O)(=O)CCC(F)(F)F)=NOC)c1cn(-c2cccnc2)nc1Cl [Compound F8, N-(3-Chloro-1-(pyridin-3-yl)-1H-pyrazol-4-yl)-N-ethyl-2-(methoxyimino)-3-((3,3,3-trifluoropropyl)sulfonyl)propanamide] | 80 to 100% | 80 to 100%
9 | CCN(C(=O)C(CS)=NOC)c1cn(-c2cccnc2)nc1Cl [Compound F9, N-(3-Chloro-1-(pyridin-3-yl)-1H-pyrazol-4-yl)-N-ethyl-3-mercapto-2-(methoxyimino)propanamide] | 80 to 100% | 0 to 80%
10 | CCON=C(CSCC1CC1(F)F)C(=O)N(CC)c1cn(-c2cccnc2)nc1Cl (centres unmarked) [Compound F11, N-(3-Chloro-1-(pyridin-3-yl)-1H-pyrazol-4-yl)-3-(((2,2-difluorocyclopropyl)methyl)thio)-2-(ethoxyimino)-N-ethylpropanamide] | 80 to 100% | 80 to 100%
11 | CCON=C(CSC(c1ccccc1)(c1ccccc1)c1ccccc1)C(=O)N(CC)c1cn(-c2cccnc2)nc1Cl [Compound F12, N-(3-chloro-1-(pyridin-3-yl)-1H-pyrazol-4-yl)-2-(ethoxyimino)-N-ethyl-3-(tritylthio)propanamide] | 0 to 80% | 80 to 100%
12 | C=CCON=C(CSC(c1ccccc1)(c1ccccc1)c1ccccc1)C(=O)N(CC)c1cn(-c2cccnc2)nc1Cl [Compound F13, 2-((Allyloxy)imino)-N-(3-chloro-1-(pyridin-3-yl)-1H-pyrazol-4-yl)-N-ethyl-3-(tritylthio)propanamide] | 0 to 80% | 0 to 80%
13 | CCN(C(=O)C(CSCCC(F)(F)F)=NOC)c1cn(-c2cccnc2)nc1Cl [Compound F14, N-(3-chloro-1-(pyridin-3-yl)-1H-pyrazol-4-yl)-N-ethyl-2-(methoxyimino)-3-((3,3,3-trifluoropropyl)thio)propanamide] | 80 to 100% | 80 to 100%
14 | CCON=C(CSCCCC(F)(F)F)C(=O)N(CC)c1cn(-c2cccnc2)nc1Cl [Compound F15, N-(3-Chloro-1-(pyridin-3-yl)-1H-pyrazol-4-yl)-2-(ethoxyimino)-N-ethyl-3-((4,4,4-trifluorobutyl)thio)propanamide] | 80 to 100% | 80 to 100%
15 | C#CCN(C(=O)C(CSCCC(F)(F)F)=NOCC)c1cn(-c2cccnc2)nc1Cl [Compound F16, N-(3-Chloro-1-(pyridin-3-yl)-1H-pyrazol-4-yl)-2-(ethoxyimino)-N-(prop-2-yn-1-yl)-3-((3,3,3-trifluoropropyl)thio)propanamide] | 80 to 100% | 80 to 100%
16 | CCON=C(CSCC(F)(F)F)C(=O)N(CC)c1cn(-c2cccnc2)nc1Cl [Compound F17, N-(3-Chloro-1-(pyridin-3-yl)-1H-pyrazol-4-yl)-2-(ethoxyimino)-N-ethyl-3-((2,2,2-trifluoroethyl)thio)propanamide] | 80 to 100% | 80 to 100%
17 | CCN(C(=O)C(C[S+]([O-])CCC(F)(F)F)=NOC)c1cn(-c2cccnc2)nc1Cl (centres unmarked) [Compound F18, N-(3-Chloro-1-(pyridin-3-yl)-1H-pyrazol-4-yl)-N-ethyl-2-(methoxyimino)-3-((3,3,3-trifluoropropyl)sulfinyl)propanamide] | 80 to 100% | 80 to 100%
18 | C#CCN(C(=O)C(CSCCCC(F)(F)F)=NOC)c1cn(-c2cccnc2)nc1Cl [Compound F19, N-(3-Chloro-1-(pyridin-3-yl)-1H-pyrazol-4-yl)-2-(methoxyimino)-N-(prop-2-yn-1-yl)-3-((4,4,4-trifluorobutyl)thio)propanamide] | 80 to 100% | 80 to 100%
19 | CCON=C(CS)C(=O)N(CC)c1cn(-c2cccnc2)nc1Cl [Compound F20, N-(3-chloro-1-(pyridin-3-yl)-1H-pyrazol-4-yl)-2-(ethoxyimino)-N-ethyl-3-mercaptopropanamide] | 80 to 100% | 0 to 80%
20 | C#CCN(C(=O)C(CSCCC(F)(F)F)=NOC)c1cn(-c2cccnc2)nc1Cl [Compound F21, N-(3-Chloro-1-(pyridin-3-yl)-1H-pyrazol-4-yl)-2-(methoxyimino)-N-(prop-2-yn-1-yl)-3-((3,3,3-trifluoropropyl)thio)propanamide] | 80 to 100% | 80 to 100%
21 | CCN(C(=O)C(C[S+]([O-])CC1CC1(F)F)=NOC)c1cn(-c2cccnc2)nc1Cl (centres unmarked) [Compound F22] | 80 to 100% | 80 to 100%
22 | C#CCN(C(=O)C(CS)=NOC)c1cn(-c2cccnc2)nc1Cl [Compound F23, N-(3-Chloro-1-(pyridin-3-yl)-1H-pyrazol-4-yl)-3-mercapto-2-(methoxyimino)-N-(prop-2-yn-1-yl)propanamide] | 0 to 80% | 0 to 80%
23 | CCON=C(CSCCC(F)(F)F)C(=O)N(CC)c1cn(-c2cccnc2)nc1Cl [Compound F24, N-(3-chloro-1-(pyridin-3-yl)-1H-pyrazol-4-yl)-2-(ethoxyimino)-N-ethyl-3-((3,3,3-trifluoropropyl)thio)propanamide] | 80 to 100% | 80 to 100%
24 | CON=C(CSCCC(F)(F)F)C(=O)N(C)c1cn(-c2cccnc2)nc1Cl [Compound P4, N-(3-chloro-1-(pyridin-3-yl)-1H-pyrazol-4-yl)-2-(methoxyimino)-N-methyl-3-((3,3,3-trifluoropropyl)thio)propanamide] | 80 to 100% | 80 to 100%
25 | CON=C(C[S+]([O-])CCC(F)(F)F)C(=O)N(C)c1cn(-c2cccnc2)nc1Cl (centres unmarked) [Compound P5, N-(3-chloro-1-(pyridin-3-yl)-1H-pyrazol-4-yl)-2-(methoxyimino)-N-methyl-3-((3,3,3-trifluoropropyl)sulfinyl)propanamide] | 80 to 100% | 80 to 100%
